Entries after “also recorded” stand apart in the source; their conditions may differ.
Columns and labels:
RgSBP = test: Saturation transfer difference (STD) NMR with RgSBP; assay type: binding, R. gnavus ATCC 29149; settings: RgSBP 50 μM with 2,7-anhydro-Neu5Ac 0.5 mM and Neu5Ac 1 mM
Procedure: An amicon centrifuge filter unit with a 10 kDa MW cut-off was used to exchange the protein in 25 mM d19-2,2-bis (hydroxymethyl)-2,2′,2″-nitrilotriethanol pH* 7.4 (uncorrected for the deuterium isotope effect on the pH glass electrode) D2O buffer and 50 mM NaCl. 2,7-anhydro-Neu5Ac and Neu5Ac were dissolved in 25 mM d19-2,2-bis(hydroxymethyl)-2,2′,2″-nitrilotriethanol pH* 7.4, 50 mM NaCl. Characterization of ligand binding by Saturation Transfer Difference NMR Spectroscopy (Mayer, M. and Meyer, B. (1999) was performed on a Bruker Avance 800.23 MHz at 298 K. The on- and off-resonance spectra were acquired using a train of 50 ms Gaussian selective saturation pulses using a variable saturation time from 0.5 s to 4 s, for binding epitope mapping determination while only 0.5 s of saturation time for each selected frequency was used to perform the DEEP-STD NMR experiments (Monaco et al., 2017). The water signal was suppressed by using the excitation sculpting technique (Hwang et al., 1995), while the remaining protein resonances were filtered using a T2 filter of 40 ms. All the spectra were performed with a spectral width of 10 KHz and 32768 data points using 256 or 512 scans. This time due to the absence of a 3D structure it was impossible to derive the resonances for saturation of aliphatic and aromatic residues found in the binding site as required by the DEEP-STD NMR technique. […]

[1] = system: RgSBP (RUMGNA_02698, solute binding protein); test: Fluorescence spectroscopy of ligand binding to RgSBP; design: species or system R. gnavus ATCC 29149; settings: for change in fluorescence emission at 350 nm upon sequential additions of ligand: sequential additions of 10 μM ligand
Procedure: Ligand binding to RgSBP was investigated by measuring changes in the intrinsic protein fluorescence upon addition of 2,7-anhydro-Neu5Ac or Neu5Ac as potential ligands. (Andrew Bell with help from student in Gavin Thomas's Group,York). Due to the presence of […] in RgSBP, fluorescence changes were measured by exciting at 297 nm. Under these conditions the protein has a maximal emission at 331 nm. […] 2,7-Anhydro-Neu5Ac caused a 16% quench in the fluorescence of the protein at ligand saturation (FIG. 3A).
The binding of RgSBP to 2,7-anhydro-Neu5Ac or Neu5Ac was further investigated by measuring changes in fluorescence emission at 350 nm when RgSBP was excited at 297 nm upon sequential additions of 10 μM ligands.
All protein fluorescence experiments used a FluoroMax 3 fluorescence spectrometer with connecting water bath at 37° C. Because of the presence of 15 […] residues, the protein was excited at 297 nm with slit widths of 5 nm. […] Cumulative fluorescence changes from titration of the protein with ligand were plotted in GraphPad and fitted to a single rectangular hyperbola. The Kd values reported were averaged from three separate ligand titration experiments.
To determine the specificity of the predicted transporter, the gene encoding the predicted SBP was amplified by PCR from the R. gnavus ATCC 29149 genome, cloned into the pHISTEV expression vector, heterologously expressed in E. coli and the His6-tag recombinant protein purified by immobilised metal ion affinity chromatography (IMAC). Ligand binding to RgSBP was investigated by measuring changes in the intrinsic protein fluorescence upon addition of 2,7-anhydro-Neu5Ac or Neu5Ac as potential ligands. Due to the presence of 7 tryptophan residues in RgSBP, fluorescence changes were measured by exciting at 297 nm. Under these conditions the protein has a maximal emission at 331 nm. […] To confirm the novel specificity of 2,7-anhydro-Neu5Ac over Neu5Ac we followed sequential changes in fluorescence at 350 nm following additions of 10 μM of the two ligands. […] Conversely, when 2,7-anhydro-Neu5Ac is added first the quench is observed and additions of 10 μM Neu5Ac caused no further reduction or reverse in the intensity (FIG. 3d), indicating Neu5Ac is unable to displace 2,7-anhydro-Neu5Ac, further supporting the specificity of the interaction between RgSBP and 2,7-anhydro-Neu5Ac.

Which results are given for `CC(=O)N[C@H]1[C@H]([C@H](O)[C@H](O)CO)OC(O)(C(=O)O)C[C@@H]1O` (stereo partly shown) [Neu5Ac, N-acetylneuraminic acid]?
transfer of magnetization as saturation from the protein to the ligand (RgSBP): complete absence of saturation transfer; change in the fluorescence emission spectra of RgSBP ([1]; excited at 297 nm, ligand at 10 μM, 20 μM or 70 μM): did not lead to any change in the spectra; change in fluorescence emission at 350 nm upon sequential additions of ligand ([1]; excited at 297 nm): no change in fluorescence is observed; also recorded: no change in intensity was observed

What does the source list for `CC(=O)N[C@H]1C2OC(C(=O)O)(C[C@@H]1O)O[C@@H]2[C@H](O)CO` (stereo partly shown) [2,7-anhydro-Neu5Ac]?
transfer of magnetization as saturation from the protein to the ligand (RgSBP): clearly observed; quench in the fluorescence of the protein ([1]; RgSBP excited at 297 nm, 10 μM or 20 μM ligand, ligand saturation): ~16%; change in fluorescence emission at 350 nm upon sequential additions of ligand ([1]; excited at 297 nm): a quench is observed; also recorded: large decrease in intensity; Kd ([1]; titration of 0.5 μM RgSBP, triplicate, hyperbolic fit): 1350 nM

Source: patent US20210254138A1, “SIALIC ACID TRANSPORTER PROTEINS AS BIOMARKERS AND DRUG TARGETS” (Quadram Institute Bioscience, priority 2018, published 2021)
